According to patent US20240109891A1, “NOVEL SUBSTITUTED TRICYCLIC AZA-HETEROCYCLES AS SOS1 INHIBITORS” (Viva Star Biosciences (Suzhou) Co., Ltd., priority 2021, published 2024):

How the values were obtained:
[1] = biological target: T1, KRAS G12C and SOS1 proteins (Homo sapiens, UniProt Q07889); assay: KRAS-G12C/SOS1 binding assay (HTRF); conditions: Tag1-SOS1 / Tag2-KRAS G12C, 10 μM GTP
T1 construct: purchased Cisbio 63ADK000CB16PEG
T1 sequence (Q07889 1-1333): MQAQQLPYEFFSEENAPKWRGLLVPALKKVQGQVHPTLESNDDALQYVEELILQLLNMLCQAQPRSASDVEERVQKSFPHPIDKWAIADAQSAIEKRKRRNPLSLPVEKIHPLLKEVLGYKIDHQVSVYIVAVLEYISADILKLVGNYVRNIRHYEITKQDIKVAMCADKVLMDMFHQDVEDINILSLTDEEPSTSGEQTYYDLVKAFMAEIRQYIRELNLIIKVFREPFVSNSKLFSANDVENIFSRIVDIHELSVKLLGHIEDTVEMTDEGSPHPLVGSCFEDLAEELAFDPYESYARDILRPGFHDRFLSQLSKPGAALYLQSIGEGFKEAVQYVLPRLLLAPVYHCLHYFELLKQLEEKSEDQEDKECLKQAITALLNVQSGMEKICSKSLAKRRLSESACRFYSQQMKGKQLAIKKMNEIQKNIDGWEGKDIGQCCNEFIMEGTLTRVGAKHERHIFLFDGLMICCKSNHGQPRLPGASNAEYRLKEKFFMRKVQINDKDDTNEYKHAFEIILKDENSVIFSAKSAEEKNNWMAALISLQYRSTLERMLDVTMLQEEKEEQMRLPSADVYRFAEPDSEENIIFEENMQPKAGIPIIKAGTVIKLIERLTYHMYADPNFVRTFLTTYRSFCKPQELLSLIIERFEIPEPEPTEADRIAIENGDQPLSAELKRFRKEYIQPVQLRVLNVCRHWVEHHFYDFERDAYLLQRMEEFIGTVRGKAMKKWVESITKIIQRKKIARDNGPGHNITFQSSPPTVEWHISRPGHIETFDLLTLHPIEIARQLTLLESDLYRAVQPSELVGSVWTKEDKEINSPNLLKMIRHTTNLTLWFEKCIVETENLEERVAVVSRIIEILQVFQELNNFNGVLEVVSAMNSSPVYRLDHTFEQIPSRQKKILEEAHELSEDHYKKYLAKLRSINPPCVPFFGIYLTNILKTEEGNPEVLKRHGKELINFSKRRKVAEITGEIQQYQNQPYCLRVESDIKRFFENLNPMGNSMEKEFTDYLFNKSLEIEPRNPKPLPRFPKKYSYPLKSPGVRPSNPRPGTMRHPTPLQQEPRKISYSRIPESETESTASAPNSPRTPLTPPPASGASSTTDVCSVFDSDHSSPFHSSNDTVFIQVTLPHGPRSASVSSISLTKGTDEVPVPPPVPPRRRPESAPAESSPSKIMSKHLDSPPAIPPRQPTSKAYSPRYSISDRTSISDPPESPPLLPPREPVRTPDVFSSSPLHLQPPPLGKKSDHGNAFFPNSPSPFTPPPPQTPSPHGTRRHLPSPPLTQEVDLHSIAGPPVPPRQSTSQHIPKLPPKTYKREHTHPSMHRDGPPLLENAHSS
Method: KRAS-WT (or G12C/G12D/G12V)/SOS1 Binding Assay
Low IC50 values are indicative of high potency of the SOS1 inhibitor compounds in this assay setting.
The KRAS-WT (or G12C/G12D/G12V)/SOS1 binding assay is performed using an assay kit (Cisbio, Cat #63ADK000CB15PEG or 63ADK000CB16PEG/63ADK000CB17PEG/63ADK000CB18PEG) according to the procedure recommended by the manufacturer. • 1) Thaw and prepare the working solution of Tag1-SOS1 protein and Tag2-KRAS-WT (or G12C/G12D/G12V) protein with final concentration of 10 μM GTP (Sigma, Cat #V900868). • 2) Thaw and prepare the working solution of anti-Tag1-Tb^3+ anti-Tag2-XL665. • 3) Dispense 2 μL of serially diluted compound, 4 μL of Tag1-SOS1 protein and 4 μL of Tag2-KRAS-WT (or G12C/G12D/G12V) protein with GTP into a ProxiPlate-384 Plus, white 384-shallow well microplate (PerkinElmer, Cat #6008280). • 4) Incubate the plate for 15 minutes at room temperature. • 5) Dispense 10 μL of pre-mixed anti-Tag1-Tb^3+ and anti-Tag2-XL665 into the plate. • 6) Seal the plate and incubate for 2 hours at room temperature. • 7) Remove the plate sealer and read on PHERAstar FS (BMG LABTECH, PHERAstar FS). • 8) Calculate the ratio of the acceptor and donor emission signals for each individual well using the following equation.
[formula] • 9) IC50 values are fitted and calculated by HTRF signal values and log of compound concentrations to nonlinear regression [Log (inhibitor) vs. Response−Variable Slope (four parameters)] using the GraphPad Prism 8.0.

[2] = biological target: T2, KRAS G12D and SOS1 proteins (Homo sapiens, UniProt Q07889); assay: KRAS-G12D/SOS1 binding assay (HTRF); conditions: Tag1-SOS1 / Tag2-KRAS G12D, 10 μM GTP
T2 construct: purchased Cisbio 63ADK000CB17PEG
T2 sequence (Q07889 1-1333): T1 sequence (Q07889 1-1333)

[3] = biological target: T3, KRAS-WT and SOS1 proteins (Homo sapiens, UniProt Q07889); assay: KRAS-WT/SOS1 binding assay (HTRF); conditions: Tag1-SOS1 / Tag2-KRAS-WT, 10 μM GTP, read-out: Activity Data in Kras: SOS1 Assay, Wild Type
T3 construct: purchased Cisbio 63ADK000CB15PEG
T3 sequence (Q07889 1-1333): T1 sequence (Q07889 1-1333)

Work on `COc1cc2c(cc1-c1ccc(=O)n(C)c1)c(N[C@H](C)c1cccc(C(F)F)c1F)nc1ccnn12` [Example 48, (R)-5-(5-((1-(3-(difluoromethyl)-2-fluorophenyl)ethyl)amino)-8-methoxypyrazolo[1,5-a]quinazolin-7-yl)-1-methylpyridin-2(1H)-one] yielded an IC50 [1] of 100 to 500 nM.
In the case of `Cc1nc(N[C@H](C)c2cccc(C(F)F)c2F)c2cc(-c3ccc(=O)n(C)c3)c3nncn3c2n1` [Example 4, (R)-5-(4-((1-(3-(difluoromethyl)-2-fluorophenyl)ethyl)amino)-2-methyl-[1,2,4]triazolo[4′,3′:1,6]pyrido[2,3-d]pyrimidin-6-yl)-1-methylpyridin-2(1H)-one], the IC50 [1] is reported as < 100 nM.
With `COc1cc2c(cc1C1CCOCC1)c(N[C@H](C)c1cccc3c1CCC3(F)F)nc1ccnn12` [Example 50, (R)-N-(1-(1,1-difluoro-2,3-dihydro-1H-inden-4-yl)ethyl)-8-methoxy-7-(tetrahydro-2H-pyran-4-yl)pyrazolo[1,5-a]quinazolin-5-amine] the IC50 [1] was 100 to 500 nM.
In the case of `Cc1nc(N[C@H](C)c2cccc(C(F)(F)CO)c2)c2cc(C3CCOCC3)c3nncn3c2n1` [Example 2, (R)-2,2-difluoro-2-(3-(1-((2-methyl-6-(tetrahydro-2H-pyran-4-yl)-[1,2,4]triazolo[4′,3′:1,6]pyrido[2,3-d]pyrimidin-4-yl)amino)ethyl)phenyl)ethanol], the IC50 [1] is reported as < 100 nM and the IC50 [2] is reported as < 100 nM.
For `COc1cc2c(cc1C1=CCOCC1)c(N[C@H](C)c1cccc3c1CCC3(F)F)nc1ccnn12` [Example 49, (R)-N-(1-(1,1-difluoro-2,3-dihydro-1H-inden-4-y1)ethyl)-7-(3,6-dihydro-2H-pyran-4-yl)-8-methoxypyrazolo[1,5-a]quinazolin-5-amine], the IC50 [1] was 100 to 500 nM.
For `COc1cc2c(cc1-c1ccc(=O)n(C)c1)c(N[C@H](C)c1cccc(C(F)(F)CO)c1)nc1ccnn12` [Example 45, (R)-5-(5-((1-(3-(1,1-difluoro-2-hydroxyethyl)phenyl)ethyl)amino)-8-methoxypyrazolo[1,5-a]quinazolin-7-yl)-1-methylpyridin-2(1H)-one], the IC50 [1] was 100 to 500 nM, the IC50 [2] was < 100 nM and the IC50 [3] was < 100 nM.
For `COc1cc2c(cc1-c1ccc(=O)n(C)c1)c(N[C@H](C)c1cccc3c1CCC3(F)F)nc1ccnn12` [Example 46, (R)-5-(5-((1-(1,1-difluoro-2,3-dihydro-1H-inden-4-yl)ethyl)amino)-8-methoxypyrazolo[1,5-a]quinazolin-7-y1)-1-methylpyridin-2(1H)-one], the IC50 [1] was 100 to 500 nM, the IC50 [2] was 100 to 500 nM and the IC50 [3] was < 100 nM.
`Cc1nc(N[C@H](C)c2cccc3c2CCC3(F)F)c2cc(C3CCOCC3)c3nncn3c2n1` [Example 1, N-[(1R)-1-(1,1-difluoro-2,3-dihydro-1H-inden-4-yl)ethyl]-12-methyl-7-(oxan-4-yl)-2,4,5,11,13-pentaazatricyclo[7.4.0.0^{2,6}]trideca-1(9),3,5,7,10,12-hexaen-10-amine] was tested, and the IC50 [1] was < 100 nM and the IC50 [2] was < 100 nM.
With `C[C@@H](Nc1nc2ccnn2c2cc(=O)n(C3CCOCC3)cc12)c1cccc(C(F)(F)CO)c1` [Example 60, (R)-5-((1-(3-(1,1-difluoro-2-hydroxyethyl)phenyl)ethyl)amino)-7-(tetrahydro-2H-pyran-4-yl)pyrazolo[1,5-a]pyrido[3,4-e]pyrimidin-8(7H)-one] the IC50 [1] was < 100 nM, the IC50 [2] was < 100 nM and the IC50 [3] was < 100 nM.
Compound `COc1cc2c(cc1C1CCOCC1)c(N[C@H](C)c1cccc(C(F)(F)CO)c1)nc1ccnn12` [Example 51, (R)-2,2-difluoro-2-(3-(1-((8-methoxy-7-(tetrahydro-2H-pyran-4-yl)pyrazolo[1,5-a]quinazolin-5-yl)amino)ethyl)phenyl)ethanol] has an IC50 [1] of 100 to 500 nM, an IC50 [2] of 100 to 500 nM and an IC50 [3] of 100 to 500 nM.
`Cc1nc(N[C@H](C)c2cccc(C(F)(F)CO)c2)c2cc(-c3ccc(=O)n(C)c3)c3nncn3c2n1` [Example 6, (R)-5-(4-((1-(3-(1,1-difluoro-2-hydroxyethyl)phenyl)ethyl)amino)-2-methyl-[1,2,4]triazolo[4′,3′:1,6]pyrido[2,3-d]pyrimidin-6-yl)-1-methylpyridin-2(1H)-one] was tested, and the IC50 [1] was < 100 nM.
Compound `Cc1nc(N[C@H](C)c2cccc3c2CCC3(F)F)c2cc(-c3ccc(=O)n(C)c3)c3nncn3c2n1` [Example 3, (R)-5-(4-((1-(1,1-difluoro-2,3-dihydro-1H-inden-4-yl)ethyl)amino)-2-methyl-[1,2,4]triazolo[4′,3′:1,6]pyrido[2,3-d]pyrimidin-6-yl)-1-methylpyridin-2(1H)-one] has an IC50 [1] of 100 to 500 nM.
`C[C@@H](Nc1nc2ccnn2c2cc(=O)n(C3CCOCC3)cc12)c1cccc(C(F)F)c1F` [Example 59, (R)-5-((1-(3-(difluoromethyl)-2-fluorophenyl)ethyl)amino)-7-(tetrahydro-2H-pyran-4-yl)pyrazolo[1,5-a]pyrido[3,4-e]pyrimidin-8(7H)-one] was tested, and the IC50 [1] was < 100 nM.
For `Cc1nc(N[C@H](C)c2cccc(C(F)F)c2F)c2cc(C3CCOCC3)c3nncn3c2n1` [Example 5, (R)-N-(1-(3-(difluoromethyl)-2-fluorophenyl)ethyl)-2-methyl-6-(tetrahydro-2H-pyran-4-yl)-[1,2,4]triazolo[4′,3′:1,6]pyrido[2,3-d]pyrimidin-4-amine], the IC50 [1] was < 100 nM.
`COc1cc2c(cc1C1CCOCC1)c(N[C@H](C)c1cccc(C(F)F)c1F)nc1ccnn12` [Example 47, (R)-N-(1-(3-(difluoromethyl)-2-fluorophenyl)ethyl)-8-methoxy-7-(tetrahydro-2H-pyran-4-yl)pyrazolo[1,5-a]quinazolin-5-amine] gave an IC50 [1] of 500 to 5000 nM, an IC50 [2] of 500 to 5000 nM and an IC50 [3] of 100 to 500 nM.
